The record followed here is patent US10611740B2, “Aryl dihydro-2H-benzo[b][1,4]oxazine sulfonamide and related compounds for use as agonists of RORγ and the treatment of disease” (Lycera Corporation, priority 2015, dated 2020).

The target of one test is T1, Gal4-RORγ-LBD (Homo sapiens, UniProt P51449).
T1 construct: expressed in transfected cells; host or cells: HEK-293 cells (pcDNA3.1neo plasmid)
T1 sequence (P51449 269-508 limits assumed): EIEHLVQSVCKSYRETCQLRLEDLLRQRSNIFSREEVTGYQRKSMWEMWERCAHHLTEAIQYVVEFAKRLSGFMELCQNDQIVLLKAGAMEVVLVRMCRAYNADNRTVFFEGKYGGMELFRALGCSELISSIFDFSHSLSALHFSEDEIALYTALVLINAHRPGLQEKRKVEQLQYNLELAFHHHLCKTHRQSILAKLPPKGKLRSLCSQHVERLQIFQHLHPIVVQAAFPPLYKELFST
The test is described as follows: Gal4-RORγ Luciferase Reporter Assay in HEK-293T Cells. Conditions: HEK-293 cells, 2 μM ursolic acid. Type of test: cell-based. The procedure: Assay procedures and results are described below.
In the following protocol, HEK-293 cells were transfected with a construct comprising the Gal4 DNA binding domain fused to the ligand binding domain of RORγ (Gal4-RORγ-LBD) in a pcDNA3.1neo plasmid, and also with a reporter construct comprising pGL4.31 Gal4-luciferase (Promega). Control cells were prepared similarly using empty pcDNA3.1neo and pGL4.31 vectors.
Trans-IT reagent (Mirus, 60 μL) at room temperature was added drop wise to OptiMEM (Invitrogen, 1.5 ml). This reagent mixture was mixed by inversion then incubated for 5 to 30 minutes at room temperature. It then was added to a solution of both expression vectors (5 μg each), mixed, and incubated at room temperature for about 20 minutes. HEK-293 cells were harvested from incubation flasks by removing the media, treating with TrypLE Express (Invitrogen), and incubating until the cells detached from the bottom of the flask (approximately 2-5 minutes). 10 Million cells were collected by centrifugation and re-suspended in 10 mL of Dulbecco's Modified Eagle Medium, High Glucose (DMEM, Invitrogen) containing 10% Fetal Bovine Serum and 100 IU each of penicillin and streptomycin. The re-suspended cells and the transfection mixture were added to a T75 flask, mixed and incubated overnight at 37° C. and 5% CO2.
The cells were harvested as described above, counted, and centrifuged to obtain the desired number of cells, then re-suspended in complete growth media at 0.75×10^6 cells/mL. The RORγ antagonist, ursolic acid, was added to the cells at a final concentration of 2 μM. Cells were plated at 20 μL of cell suspension/well (10,000-15,000 cells/well) in white tissue culture treated 384 well plates. Test compounds were dissolved at 10 mM in DMSO then diluted into complete growth medium to 5× the final intended test concentration. These drug stock solutions, 5 μL/well were added to the tissue culture plate. The final DMSO concentration was 0.2%. The plates were briefly centrifuged then incubated overnight at 37° C. and 5% CO2. To conduct the assay, the tissue culture plates were allowed to equilibrate to room temperature and One-Glo luciferase reagent (Promega, 25 μL/well) was added. The plates were briefly centrifuged then incubated at room temperature for 10 minutes. The luciferase intensity was read on an Envision plate reader (Perkin Elmer). […] The luciferase signal in the absence of ursolic acid or test compound is defined at 100. The Max Response is the upper plateau in the signal as determined by line-fit using a 4-parameter logistic model in PRISM (GraphPad).
(Reporter assays use an easily measured gene product as a stand-in for the process of interest.)
Usually EC50 stands for the concentration needed to bring the measured effect to its halfway point. Higher therefore signals a less potent agent. In the case of `C[C@]1(C(=O)O)C[C@H](C[C@H]2CN(S(=O)(=O)c3cccc(C(F)(F)F)c3)c3cc(-c4cc(F)cc(OC(F)F)c4)ccc3O2)C1` [Compound 69, (1S,3r)-3-(((S)-6-(3-(difluoromethoxy)-5-fluorophenyl)-4-((3-(trifluoromethyl)phenyl)sulfonyl)-3,4-dihydro-2H-benzo[b][1,4]oxazin-2-yl)methyl)-1-methylcyclobutane-1-carboxylic acid], the EC50 was 500 to 5000 nM and the “Gal4-RORγ Assay Max Response” value is “** (The symbol “**” indicates a value in the range of greater than 90 to 150)”.

With `COc1cc(F)cc(-c2ccc3c(c2)N(S(=O)(=O)c2cccc(C(F)(F)F)c2)C[C@H](CC2(C(=O)O)CCOCC2)O3)c1` [Compound 78R, (S)-4-((6-(3-fluoro-5-methoxy-phenyl)-4-((3-(trifluoromethyl)-phenyl)sulfonyl)-3,4-dihydro-2H-benzo[b][1,4]oxazin-2-yl)methyl)tetrahydro-2H-pyran-4-carboxylic acid], the EC50 was under 500 nM and the “Gal4-RORγ Assay Max Response” value was “** (The symbol “**” indicates a value in the range of greater than 90 to 150)”.

Take `O=C(O)[C@]1(C[C@H]2CN(S(=O)(=O)c3cccc(C(F)(F)F)c3)c3cc(-c4cc(F)ccc4F)ccc3O2)C[C@](O)(CO)C1` [Compound 89D, (1r,3R)-1-(((S)-6-(2,5-difluoro-phenyl)-4-((3-(trifluoromethyl)-phenyl)sulfonyl)-3,4-dihydro-2H-benzo[b][1,4]oxazin-2-yl)methyl)-3-hydroxy-3-(hydroxymethyl)-cyclobutane-1-carboxylic acid]: the EC50 was 500 to 5000 nM and the “Gal4-RORγ Assay Max Response” value is on record as “** (The symbol “**” indicates a value in the range of greater than 90 to 150)”.

For `C[C@]1(C(=O)O)C[C@H](C[C@H]2CN(S(=O)(=O)c3cccc(C(F)(F)F)c3)c3cc(-c4cc(F)cc(F)c4Cl)ccc3O2)C1` [Compound 60F, (1S,3r)-3-(((S)-6-(2-chloro-3,5-difluorophenyl)-4-((3-(trifluoro-methyl)phenyl)sulfonyl)-3,4-dihydro-2H-benzo[b][1,4]oxazin-2-yl)methyl)-1-methylcyclo-butane-1-carboxylic acid], the EC50 was under 500 nM and the “Gal4-RORγ Assay Max Response” value was “** (The symbol “**” indicates a value in the range of greater than 90 to 150)”.

For the compound `O=C(O)[C@]1(C[C@H]2CN(S(=O)(=O)c3cccc(C(F)(F)F)c3)c3cc(-c4cc(F)cc(OC(F)F)c4)ccc3O2)C[C@@H](O)[C@@H](O)C1` [Compound 64, (1s,3R,4S)-1-(((S)-6-(3-(difluoromethoxy)-5-fluorophenyl)-4-((3-(trifluoromethyl)phenyl)sulfonyl)-3,4-dihydro-2H-benzo[b][1,4]oxazin-2-yl)methyl)-3,4-dihydroxycyclopentane-1-carboxylic acid], the EC50 was in the range of 500 to 5000 nM and the “Gal4-RORγ Assay Max Response” value is “** (The symbol “**” indicates a value in the range of greater than 90 to 150)”.

Consider `O=C(O)C1(C[C@H]2CN(S(=O)(=O)c3cncc(C(F)(F)F)c3)c3cc(-c4cc(F)cc(OC(F)F)c4)ccc3O2)COC1` [Compound 51L, (S)-3-((6-(3-(difluoromethoxy)-5-fluorophenyl)-4-((5-(trifluoro-methyl)pyridin-3-yl)sulfonyl)-3,4-dihydro-2H-benzo[b][1,4]oxazin-2-yl)methyl)oxetane-3-carboxylic acid], for which the EC50 was under 500 nM and the “Gal4-RORγ Assay Max Response” value is recorded as “** (The symbol “**” indicates a value in the range of greater than 90 to 150)”.

`CC1(C(=O)O)CC(C[C@H]2CN(S(=O)(=O)c3cccc(C(F)(F)F)c3)c3cc(-c4cc(F)cc(F)c4Cl)ccc3O2)C1` (stereo partly drawn) [Compound 60G, (1R,3s)-3-(((S)-6-(2-chloro-3,5-difluorophenyl)-4-((3-(trifluoro-methyl)phenyl)sulfonyl)-3,4-dihydro-2H-benzo[b][1,4]oxazin-2-yl)methyl)-1-methylcyclo-butane-1-carboxylic acid]: the concentration giving a half-maximal response (EC50) is under 500 nM and the “Gal4-RORγ Assay Max Response” value is “*** (The symbol “***” indicates a value in the range of greater than 150 to 200)”.

With `O=C(O)[C@]1(C[C@H]2CN(S(=O)(=O)c3cccc(C(F)(F)F)c3)c3cc(-c4cc(F)ccc4F)ccc3O2)C[C@@](O)(CO)C1` [Compound 89E, (1s,3S)-1-(((S)-6-(2,5-difluoro-phenyl)-4-((3-(trifluoromethyl)-phenyl)sulfonyl)-3,4-dihydro-2H-benzo[b][1,4]oxazin-2-yl)methyl)-3-hydroxy-3-(hydroxymethyl)-cyclobutane-1-carboxylic acid], the EC50 fell in the range of 500 to 5000 nM and the “Gal4-RORγ Assay Max Response” value was “** (The symbol “**” indicates a value in the range of greater than 90 to 150)”.

Consider `O=C(O)C1(C[C@H]2CN(S(=O)(=O)c3cccc(C(F)(F)F)c3)c3cc(-c4cc(F)cc(F)c4)ccc3O2)CCOCC1` [Compound 78N, (S)-4-((6-(3,5-difluorophenyl)-4-((3-(trifluoromethyl)phenyl)-sulfonyl)-3,4-dihydro-2H-benzo[b][1,4]oxazin-2-yl)methyl)tetrahydro-2H-pyran-4-carboxylic acid], for which the concentration giving a half-maximal response (EC50) was under 500 nM and the “Gal4-RORγ Assay Max Response” value was “** (The symbol “**” indicates a value in the range of greater than 90 to 150)”.

With `O=C(O)CC[C@H]1CN(S(=O)(=O)c2cccc(C(F)(F)F)c2)c2cc(-c3cc(F)cc(F)c3)c(Cl)cc2O1` [Compound 22L, (S)-3-(7-chloro-6-(3,5-difluoro-phenyl)-4-((3-(trifluoromethyl)-phenyl)sulfonyl)-3,4-dihydro-2H-benzo[b][1,4]oxazin-2-yl)propanoic acid], the EC50 is under 500 nM and the “Gal4-RORγ Assay Max Response” value is “** (The symbol “**” indicates a value in the range of greater than 90 to 150)”.

Consider `O=C(O)CO[C@@H]1Cc2ccc(-c3cc(F)ccc3F)cc2N(S(=O)(=O)c2cccc(C(F)(F)F)c2)C1` [Compound 82, (R)-2-((7-(2,5-difluorophenyl)-1-((3-(trifluoromethyl)phenyl)sulfonyl)-1,2,3,4-tetrahydroquinolin-3-yl)oxy)acetic acid], for which the EC50 is 500 to 5000 nM and the “Gal4-RORγ Assay Max Response” value is on record as “** (The symbol “**” indicates a value in the range of greater than 90 to 150)”.

Consider `O=C(O)C1(C[C@H]2CN(S(=O)(=O)c3cccc(C(F)F)c3)c3cc(-c4cc(F)ccc4F)ccc3O2)COC1` [Compound 51H, (S)-3-((4-((3-(difluoromethyl)-phenyl)sulfonyl)-6-(2,5-difluorophenyl)-3,4-dihydro-2H-benzo[b][1,4]oxazin-2-yl)methyl)oxetane-3-carboxylic acid], for which the EC50 was in the range of 500 to 5000 nM and the “Gal4-RORγ Assay Max Response” value is reported as “** (The symbol “**” indicates a value in the range of greater than 90 to 150)”.

The test is the same for the next values; noted with them: HEK-293 cells, luciferase reporter, with 2 μM ursolic acid.
As for `COc1cc(S(=O)(=O)N2C[C@H](CNC(=O)C(C)(C)O)Oc3ccc(-c4cccc(C(F)(F)F)n4)cc32)ccc1F` [Compound 30T, (S)-N-((4-((4-fluoro-3-methoxyphenyl)sulfonyl)-6-(6-(trifluoromethyl)pyridin-2-yl)-3,4-dihydro-2H-benzo[b][1,4]oxazin-2-yl)methyl)-2-hydroxy-2-methylpropanamide], the 50% effective concentration (EC50) was under 500 nM and the “Gal4-RORγ Assay Max Response” value is on record as “* (The symbol “*” indicates a value in the range of 25 to 90)”.
